Values of other authors in patent US11608532B2, “Precision medicine for treating and preventing suicidality” (Indiana University Research and Technology Corporation, priority 2017, dated 2023).
Like-named read-outs stand apart in the source and are kept apart here.

Columns and labels:
[1] = test system: individual top biomarkers for suicidality; details: for HTR2A modulated by drug in opposite direction to suicide: DE/2
[2] = test system: top male bipolar biomarkers for suicidality; details: HTR2A, 244130_at, (I) in suicidality, male bipolars
[3] = test system: BioM50 panel biomarkers; details: for Matching to Treatments (Pharmacogenomics) Drugs that Modulate the Biomarker in opposite Direction to Suicide: (D) decreased in high suicidal ideation

CCCC(CCC)C(=O)O [Valproate]
Valproate: SLC4A4 modulated by drug in opposite direction to suicide ([1]; A. Top Universal Biomarkers, direction of change in suicidality (I), AP/1) | HTR2A modulated by drug in opposite direction to suicide ([1]; A. Top Universal Biomarkers, direction of change in suicidality (I)) | SLC4A4 modulated by drug in opposite direction to suicide ([1]; B. Top Biomarkers in Males, direction of change in suicidality I, AP/2) | TPR modulated by drug in opposite direction to suicide ([1]; C. Top Biomarkers in Females, direction of change in suicidality D, AP/4) | HTR2A modulated by drug in opposite direction to suicide ([1]; C. Top Biomarkers in Females, direction of change in suicidality I) | HTR2A modulated by drug in opposite direction to suicide ([1]; D. Top Biomarkers in Bipolar Disorder, direction of change in suicidality (I)) | TSPYL1 modulated by drug in opposite direction to suicide ([1]; E. Top Biomarkers in Depression, direction of change in suicidality (D), AP/1) | GLIPR1 modulated by drug in opposite direction to suicide ([1]; E. Top Biomarkers in Depression, direction of change in suicidality (D), DE/1) | HTR2A modulated by drug in opposite direction to suicide ([1]; F. Top Biomarkers in Males with Bipolar Disorder, direction of change in suicidality (I)) | TSPYL1 modulated by drug in opposite direction to suicide ([1]; G. Top Biomarkers in Males with Depression, direction of change in suicidality D, AP/1) | Step 6 Drugs that Modulate the Biomarker in Opposite Direction to Suicide ([1]; biomarker CTTN (cortactin)) | Step 6 Drugs that Modulate the Biomarker in Opposite Direction to Suicide ([1]; biomarker HTR2A (5-hydroxytryptamine (serotonin) receptor 2A, G protein-coupled)) | Step 6 Drugs that Modulate the Biomarker in Opposite Direction to Suicide ([1]; biomarker PKP4 (plakophilin 4)) | Step 6 Drugs that Modulate the Biomarker in Opposite Direction to Suicide ([1]; biomarker PRKAR2B) | Drugs that modulate the biomarker RBM3 ([1]; biomarker RBM3 (RNA binding motif (RNP1, RRM) protein 3), Table 20 CFE drug-evidence) | Step 6 Drugs that Modulate the Biomarker in Opposite Direction to Suicide ([1]; biomarker SLC4A4) | Drugs that Modulate the Biomarker in Opposite Direction to Suicide [2] | known drugs or classes of drugs that have an opposite effect to suicidality on the biomarker's direction of change (pharmacogenomics) ([3]; biomarker BCL2 (B-cell CLL/lymphoma 2)) | Matching to Treatments (Pharmacogenomics) Drugs that Modulate the Biomarker in opposite Direction to Suicide ([3]; biomarker NR3C1, probeset 201866_s_at) | Matching to Treatments (Pharmacogenomics) Drugs that Modulate the Biomarker in opposite Direction to Suicide ([3]; biomarker PRKAR2B, probeset 203680_at)
